# Assays:
# [1] = system: DHL5 diffuse large B-cell lymphoma (DLBCL) cells; experiment: DHL5 cell viability assay (CellTiter-Glo); format: cell-based; conditions: for cell viability: single agent, 24 hours
# [2] = system: BCL-XL-dependent leukemia cell line; experiment: Caspase 3/7 and cell death in BCL-XL-dependent leukemia cell line; format: cell-based
# [3] = system: MCL-1 dependent leukemia cell line; experiment: Caspase 3/7 and cell death in isogenic MCL-1 dependent leukemia cell line; format: cell-based
# [4] = target: T1, recombinant full-length BAX (Homo sapiens, UniProt Q07812); experiment: Competitive fluorescence polarization assay: displacement of FITC-BIM SAHB from BAX; format: binding; conditions: positive control
# T1 construct: Recombinant and tagless full-length BAX; made in house; host or cells: Escherichia coli BL21 (DE3)
# Protocol: BCL-2 family protein production. Recombinant and tagless full-length BAX, BCL-XLΔC, MCL-1ΔNΔC, and BFL-1/A1ΔC were expressed and purified as previously reported^17,35. Transformed Escherichia coli BL21 (DE3) were cultured in ampicillin-containing Luria Broth and protein expression was induced with 0.5 mM isopropyl β-D-1-thiogalactopyranoside (IPTG). The bacterial pellets were resuspended in buffer (250 mM NaCl, 20 mM Tris, complete protease inhibitor tablet, pH 7.2), sonicated, and after centrifugation at 45,000×g for 45 min, the supernatants were applied to glutathione-agarose columns (Sigma) for GST-BCL-XLΔC, MCL-1ΔNΔC, and BFL-1/A1ΔC, or a chitin column (BioLabs) for Intein-BAX. On-bead digestion of GST-tagged protein was accomplished by overnight incubation at room temperature in the presence of thrombin (75 units) in PBS (3 mL), whereas the intein tag was cleaved from BAX by overnight incubation of the chitin beads at 4° C. with 50 mM DTT. BCL-XLΔC, MCL-1ΔNΔC, and BFL-1/A1ΔC were purified by size exclusion chromatography (SEC) using 150 mM NaCl, 50 mM Tris, pH 7.4 buffer conditions, and full-length monomeric BAX protein isolated by SEC using a Superdex-75 column (GE Healthcare) and 20 mM Hepes pH 7.2, 150 mM KCl buffer conditions.
# (§1) Fluorescence polarization binding assays. Fluorescence polarization assays (FPA) were performed as previously described^35,36.
# BCL-XL = target: T2, BCL-XL (Homo sapiens, UniProt Q07817); experiment: Competitive FPA with FITC-BIM SAHB and BCL-XL; format: binding
# T2 construct: serial dilutions of full-length BAX, BCL-XLΔC, MCL-1ΔNΔC, or BFL-1/A1ΔC; GST (N, cleaved yes); made in house; host or cells: Escherichia coli BL21 (DE3)
# Source text: (§2) The BH3 binding pocket of anti-apoptotic targets shares topographic similarities with the BH3 trigger site on BAX, including a hydrophobic groove that engages the hydrophobic face of BH3 helices and a perimeter of similarly oriented charged and polar residues that are complementary to discrete residues of the hydrophilic BH3 interface. The two BH3 binding sites differ in their geographic location, pocket depth, and functionality.
# (§3) BCL-2 family protein production. Recombinant and tagless full-length BAX, BCL-XLΔC, MCL-1ΔNΔC, and BFL-1/A1ΔC were expressed and purified as previously reported^17,35. Transformed Escherichia coli BL21 (DE3) were cultured in ampicillin-containing Luria Broth and protein expression was induced with 0.5 mM isopropyl β-D-1-thiogalactopyranoside (IPTG). The bacterial pellets were resuspended in buffer (250 mM NaCl, 20 mM Tris, complete protease inhibitor tablet, pH 7.2), sonicated, and after centrifugation at 45,000×g for 45 min, the supernatants were applied to glutathione-agarose columns (Sigma) for GST-BCL-XLΔC, MCL-1ΔNΔC, and BFL-1/A1ΔC, or a chitin column (BioLabs) for Intein-BAX. […]
# as §1
# MCL-1 = target: T3, MCL-1 (Homo sapiens, UniProt Q07820); experiment: Competitive FPA with FITC-BIM SAHB and MCL-1; format: binding
# T3 construct: serial dilutions of full-length BAX, BCL-XLΔC, MCL-1ΔNΔC, or BFL-1/A1ΔC; GST (N, cleaved yes); made in house; host or cells: Escherichia coli BL21 (DE3)
# Source text: as §2, §3, §1
# BFL-1/A1 = target: T4, BFL-1/A1 (Homo sapiens, UniProt Q16548); experiment: Competitive FPA with FITC-BIM SAHB and BFL-1/A1; format: binding
# T4 construct: serial dilutions of full-length BAX, BCL-XLΔC, MCL-1ΔNΔC, or BFL-1/A1ΔC; GST (N, cleaved yes); made in house; host or cells: Escherichia coli BL21 (DE3)
# T4 sequence (Q16548 1-151 limits assumed): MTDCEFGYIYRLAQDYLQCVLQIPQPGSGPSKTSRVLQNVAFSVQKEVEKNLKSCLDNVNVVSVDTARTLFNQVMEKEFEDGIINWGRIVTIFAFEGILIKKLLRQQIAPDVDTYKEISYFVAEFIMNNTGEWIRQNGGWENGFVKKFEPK
# Source text: as §2, §3, §1
# Bak−/− MEFs [5] = experiment: Cell viability assay in Bak-/- MEFs (CellTiter-Glo); format: cell-based, mouse; conditions: Bak−/− MEFs (express only BAX), 24 hours
# Bax−/−Bak−/− MEFs = experiment: Cell viability assay in Bax-/-Bak-/- MEFs (CellTiter-Glo); format: cell-based, mouse; conditions: 24 hours
# Bak−/− MEFs [6] = experiment: Light microscopy (live cell imaging) of Bak-/- MEFs; format: cell-based, mouse; conditions: BAM7 15 μM, time lapse
# Protocol: Light microscopy. MEFs (5,000 cells/well) were plated for 24 hours on glass bottom culture dishes (MatTek Corp., MA) and then incubated with BAM7 (15 μM) or vehicle (0.15% DMSO). Live cell imaging was performed using a TE2000-E2 Nikon microscopy equipped with a temperature and CO2-controlled chamber that maintained an atmosphere of 3-5% humidified CO2 at 37° C. A Hamamatsu Orca ER digital CCD camera was used to capture images at 20× magnification for 24 hours at 20 min intervals. Acquisition, hardware control, and image analysis was performed using Nikon NIS-Elements software.
# leukemia cells = experiment: Leukemia cell viability (anti-leukemic activity); format: cell-based; conditions: FIGS. 15-17
# T2 sequence (Q07817 1-212 limits assumed, species assumed): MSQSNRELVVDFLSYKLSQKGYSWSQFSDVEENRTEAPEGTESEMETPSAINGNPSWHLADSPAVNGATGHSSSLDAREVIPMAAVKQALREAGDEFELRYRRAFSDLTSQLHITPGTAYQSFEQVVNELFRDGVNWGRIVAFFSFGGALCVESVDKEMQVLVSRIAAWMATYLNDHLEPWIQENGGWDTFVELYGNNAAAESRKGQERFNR
# T3 sequence (Q07820 170-327 limits assumed, species assumed): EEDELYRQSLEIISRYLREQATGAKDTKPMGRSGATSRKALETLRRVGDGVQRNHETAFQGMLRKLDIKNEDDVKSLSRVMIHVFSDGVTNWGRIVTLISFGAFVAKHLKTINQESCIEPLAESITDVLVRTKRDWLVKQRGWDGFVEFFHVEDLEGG
# T1 sequence (Q07812 whole entry): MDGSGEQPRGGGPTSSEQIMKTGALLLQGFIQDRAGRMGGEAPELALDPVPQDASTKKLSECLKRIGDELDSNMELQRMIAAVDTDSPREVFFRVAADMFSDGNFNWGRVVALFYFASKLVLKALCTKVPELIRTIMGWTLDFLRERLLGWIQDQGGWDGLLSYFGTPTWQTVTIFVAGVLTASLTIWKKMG
IC50 [4],"IC50 (BCL-XL; competitive FPA, read-out: IC50, competition with FITC-BIM SAHB for binding to BCL-XL)","IC50 (MCL-1; competitive FPA, read-out: IC50, competition with FITC-BIM SAHB for binding to MCL-1)","IC50 (BFL-1/A1; competitive FPA, read-out: IC50, competition with FITC-BIM SAHB for binding to BFL-1/A1)",Compound,cell viability [1],effect of added ABT-737 on the response to BAM7 ([1]; subcytotoxic dose of ABT-737 added to BAM7),cell death [2],cell death [3],competition with FITC-BIM SAHB for BCL-XL (in words) (BCL-XL; up to 50 μM dosing),competition with FITC-BIM SAHB for MCL-1 (in words) (MCL-1; up to 50 μM dosing),competition with FITC-BIM SAHB for BFL-1/A1 (in words) (BFL-1/A1; up to 50 μM dosing),cell viability (Bak−/− MEFs [5]),cell viability (Bax−/−Bak−/− MEFs),morphologic features of apoptosis (Bak−/− MEFs [6]),effect of BAM7 on the response to ABT-737 ([1]; BAM7 10 μM plus ABT-737),anti-leukemic activity (leukemia cells)
,,,,"CN(C)CC[C@H](CSc1ccccc1)Nc1ccc(S(=O)(=O)NC(=O)c2ccc(N3CCN(Cc4ccccc4-c4ccc(Cl)cc4)CC3)cc2)cc1[N+](=O)[O-] [ABT-737, reference compound]",relatively resistant,further sensitized the cells to BAM7,induces cell death,significant resistance,,,,,,,,
314 nM,572 nM,136 nM,603 nM,"CC[C@H](C)[C@H](NC(C)=O)C(=O)N[C@@H](Cc1c[nH]c2ccccc12)C(=O)N[C@H](C(=O)N[C@@H](C)C(=O)N[C@@H](CCC(N)=O)C(=O)N[C@@H](CCC(=O)O)C(=O)N[C@@H](CC(C)C)C(=O)N[C@@H](CCCNC(=N)N)C(=O)N[C@@]1(C)CCCC=CCCC[C@@](C)(C(=O)N[C@@H](Cc2ccccc2)C(=O)N[C@@H](CC(N)=O)C(=O)N[C@@H](C)C(=O)N[C@@H](Cc2ccc(O)cc2)C(=O)N[C@@H](Cc2ccc(O)cc2)C(=O)N[C@@H](C)C(=O)N[C@@H](CCCNC(=N)N)C(=O)N[C@@H](CCCNC(=N)N)C(N)=O)NC(=O)[C@H](CC(=O)O)NC(=O)CNC(=O)[C@H]([C@@H](C)CC)NC1=O)[C@@H](C)CC [Ac-BIM SAHB, reference compound]",,,,,,,,,,,,
,,,,"CCOc1ccccc1NN=C1C(=O)N(c2nc(-c3ccccc3)cs2)N=C1C [BAM7, 4-(2-(2-ethoxyphenyl)hydrazono)-3-methyl-1-(4-phenylthiazol-2-yl)-1H-pyrazol-5(4H)-one]",dose-responsive impairment of cell viability,,,,little to no anti-apoptotic binding interactions,little to no anti-apoptotic binding interactions,little to no anti-apoptotic binding interactions,dose-responsively impaired the viability,did not affect the viability,characteristic microscopic features of apoptosis,sensitized DHL5 cells to ABT-737,anti-leukemic activity

# — US11358960B2, “Pyrazol-3-ones that activate pro-apoptotic BAX” (Dana-Farber Cancer Institute, Inc., priority 2011, dated 2022)
